Data taken from patent publication US8673929B2, “4,6-di- and 2,4,6-trisubstituted quinazoline derivatives and pharmaceutical compositions useful for treating viral infections” (priority 2006, dated 2014).

How the values were obtained:
Huh-7 HCV replicon cells = experiment: CC50 assay in the anti-HCV replicon assay (CellTiter-Glo); format: cell-based, human; details: 3 days incubation, CellTiter-Glo luminescence
Outline: (§1)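 Huh-7 cells harbouring an HCV replicon (6000/well) incubated 3 days at 37° C with 3-fold serially diluted compound (0.5% DMSO final where used). EC50 from luciferase luminescence of lysed cells; CC50 from CellTiter-Glo luminescence in parallel plates.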

HCV replicon = experiment: Anti-HCV replicon assay, EC50 (luciferase readout); format: cell-based; details: Huh-7 HCV replicon cells, 3 days incubation, luciferase luminescence
Outline: as §1

[1] = CC50 assay in the anti-HCV replicon assay (CellTiter-Glo); format: cell-based, human; details: human, Huh-7 hepatoma cells harbouring an HCV replicon; Huh-7 HCV replicon cells, 3 days incubation, CellTiter-Glo luminescence
Outline: as §1

Row | SMILES | CC50 (Huh-7 HCV replicon cells) [µM] | EC50 (HCV replicon) [µM] | CC50 at 3 days [1] [µM] | EC50 (HCV replicon; Hepatitis C virus, 72 h) [µM]
1 | CONC(=O)c1ccc(-c2ccc3nc(N)nc(OCC4CC4)c3c2)cc1 [Example 136] | 10 to 20 | 0.3 to 1 | – | –
2 | Nc1nc(O[C@@H]2CCOC2)c2cc(-c3ccc(C(=O)NCCN4CCOCC4)cc3)ccc2n1 [Example 217, (R)-4-[2-Amino-4-(tetrahydro-furan-3-yloxy)-quinazolin-6-yl]-N-(2-morpholin-4-yl-ethyl)-benzamide] | – | – | > 20 | < 0.3
3 | Nc1nc(O[C@@H]2CCOC2)c2cc(-c3ccc(C(=O)NCCN4CCCC4)cc3)ccc2n1 [Example 218, (R)-4-[2-Amino-4-(tetrahydro-furan-3-yloxy)-quinazolin-6-yl]-N-(2-pyrrolidin-1-yl-ethyl)-benzamide] | – | – | < 10 | < 0.3
4 | Nc1nc(O[C@@H]2CCOC2)c2cc(-c3ccc(C(=O)NCC(F)(F)F)cc3)ccc2n1 [Example 219, (R)-4-[2-Amino-4-(tetrahydro-furan-3-yloxy)-quinazolin-6-yl]-N-(2,2,2-trifluoro-ethyl)-benzamide] | – | – | > 20 | < 0.3
5 | Nc1nc(O[C@@H]2CCOC2)c2cc(-c3ccc(C(=O)NCCCN4CCCC4)cc3)ccc2n1 [Example 220, (R)-4-[2-Amino-4-(tetrahydro-furan-3-yloxy)-quinazolin-6-yl]-N-(3-pyrrolidin-1-yl-propyl)-benzamide] | – | – | < 10 | < 0.3
6 | CC(C)(CN1CCOCC1)NC(=O)c1ccc(-c2ccc3nc(N)nc(O[C@@H]4CCOC4)c3c2)cc1 [Example 222, (R)-4-[2-Amino-4-(tetrahydro-furan-3-yloxy)-quinazolin-6-yl]-N-(1,1-dimethyl-2-morpholin-4-yl-ethyl)-benzamide] | – | – | > 20 | < 0.3
7 | CC(C)(CN1CCCC1)NC(=O)c1ccc(-c2ccc3nc(N)nc(O[C@@H]4CCOC4)c3c2)cc1 [Example 223, (R)-4-[2-Amino-4-(tetrahydro-furan-3-yloxy)-quinazolin-6-yl]-N-(1,1-dimethyl-2-pyrrolidin-1-yl-ethyl)-benzamide] | – | – | < 10 | < 0.3
8 | N#CC1(NC(=O)c2ccc(-c3ccc4nc(N)nc(O[C@@H]5CCOC5)c4c3)cc2)CC1 [Example 224, (R)-4-[2-Amino-4-(tetrahydro-furan-3-yloxy)-quinazolin-6-yl]-N-(1-cyano-cyclopropyl)-benzamide] | – | – | > 20 | < 0.3
9 | CC(C)N1CCC(NC(=O)c2ccc(-c3ccc4nc(N)nc(O[C@@H]5CCOC5)c4c3)cc2)CC1 [Example 225, (R)-4-[2-Amino-4-(tetrahydro-furan-3-yloxy)-quinazolin-6-yl]-N-(1-isopropyl-piperidin-4-yl)-benzamide] | – | – | > 20 | 1 to 10
10 | CN(C)CCCOc1nc(N)nc2ccc(-c3cc4ccccc4o3)cc12 [Example 227, 6-benzofuran-2-yl-4-(3-dimethylaminopropoxy)-quinazolin-2-ylamine] | – | – | > 20 | 1 to 10
11 | CN(C)CCCOc1nc(N)nc2ccc(-c3ccc(Cl)cc3Cl)cc12 [Example 229, 6-(2,4-Dichlorophenyl)-4-(3-dimethylamino-propoxy)-quinazolin-2-ylamine] | – | – | > 20 | 1 to 10
12 | CN(C)CCCOc1nc(N)nc2ccc(-c3cc(F)c(F)c(F)c3)cc12 [Example 230, 4-(3-Dimethylamino-propoxy)-6-(3,4,5-trifluoro-phenyl)-quinazolin-2-ylamine] | – | – | > 20 | 1 to 10
13 | Cc1cc(C)cc(-c2ccc3nc(N)nc(OCCCN(C)C)c3c2)c1 [Example 231, 4-(3-Dimethylamino-propoxy)-6-(3,5-dimethyl-phenyl)-quinazolin-2-ylamine] | – | – | > 20 | 1 to 10
14 | CN(C)CCCOc1nc(N)nc2ccc(-c3ccc(Cl)cc3)cc12 [Example 232, 6-(4-Chloro-phenyl)-4-(3-dimethylamino-propoxy)-quinazolin-2-ylamine] | – | – | > 20 | 1 to 10
15 | CN(C)CCCOc1nc(N)nc2ccc(-c3cccc(C(F)(F)F)c3)cc12 [Example 233, 4-(3-Dimethylamino-propoxy)-6-(3-trifluoromethyl-phenyl)-quinazolin-2-ylamine] | – | – | > 20 | 1 to 10
16 | Nc1nc(OCCN2CCOCC2)c2cc(-c3ccc(Cl)c(C(F)(F)F)c3)ccc2n1 [Example 234, 6-(4-Chloro-3-trifluoromethyl-phenyl)-4-(2-morpholin-4-yl-ethoxy)-quinazolin-2-ylamine] | – | – | 10 to 20 | 1 to 10
17 | Nc1nc(OCCN2CCOCC2)c2cc(-c3ccc(O)cc3)ccc2n1 [Example 235, 4-[2-Amino-4-(2-morpholin-4-yl-ethoxy)-quinazolin-6-yl]-phenol] | – | – | > 20 | 1 to 10
18 | Nc1nc(OCCN2CCOCC2)c2cc(-c3ccsc3)ccc2n1 [Example 236, 4-(2-Morpholin-4-yl-ethoxy)-6-thiophen-3-yl-quinazolin-2-ylamine] | – | – | > 20 | 1 to 10

Row | SMILES | CC50 (Huh-7 HCV replicon cells) [µM] | EC50 (HCV replicon) [µM] | CC50 at 3 days [1] [µM] | EC50 (HCV replicon; Hepatitis C virus, 72 h) [µM]
19 | Nc1nc(OCCN2CCOCC2)c2cc(-c3cccs3)ccc2n1 [Example 237, 4-(2-Morpholin-4-yl-ethoxy)-6-thiophen-2-yl-quinazolin-2-ylamine] | – | – | > 20 | 1 to 10
20 | Nc1nc(OCCN2CCOCC2)c2cc(-c3cc4ccccc4o3)ccc2n1 [Example 238, 6-Benzofuran-2-yl-4-(2-morpholin-4-yl-ethoxy)-quinazolin-2-ylamine] | – | – | 10 to 20 | 1 to 10
21 | Nc1nc(OCCN2CCOCC2)c2cc(-c3ccoc3)ccc2n1 [Example 239, 6-Furan-3-yl-4-(2-morpholin-4-yl-ethoxy)-quinazolin-2-ylamine] | – | – | 10 to 20 | 1 to 10
22 | Nc1nc(OCCN2CCOCC2)c2cc(-c3cc4ccccc4s3)ccc2n1 [Example 240, 6-Benzo[b]thiophen-2-yl-4-(2-morpholin-4-yl-ethoxy)-quinazolin-2-ylamine] | – | – | > 20 | 1 to 10
23 | Nc1nc(OCCN2CCOCC2)c2cc(-c3ccccc3C(F)(F)F)ccc2n1 [Example 241, 4-(2-Morpholin-4-yl-ethoxy)-6-(2-trifluoromethyl-phenyl)-quinazolin-2-ylamine] | – | – | > 20 | 1 to 10
24 | Nc1nc(OCCN2CCOCC2)c2cc(-c3cccc(C(F)(F)F)c3)ccc2n1 [Example 242, 4-(2-Morpholin-4-yl-ethoxy)-6-(3-trifluoromethyl-phenyl)-quinazolin-2-ylamine] | – | – | 10 to 20 | 1 to 10
25 | Nc1nc(OCCN2CCOCC2)c2cc(-c3cccc(F)c3F)ccc2n1 [Example 243, 6-(2,3-Difluoro-phenyl)-4-(2-morpholin-4-yl-ethoxy)-quinazolin-2-ylamine] | – | – | > 20 | 1 to 10
26 | CC(C)Oc1ncnc2ccc(-c3ccsc3)cc12 [Example 244, 4-isopropoxy-6-thiophen-3-yl-quinazoline] | – | – | > 20 | 1 to 10
27 | CNC(=O)c1ccc(-c2ccc3ncnc(OC(C)C)c3c2)cc1 [Example 245, 4-(4-Isopropoxy-quinazolin-6-yl)-N-methyl-benzamide] | – | – | > 20 | 1 to 10
28 | CC(C)Oc1ncnc2ccc(-c3ccc(F)cc3)cc12 [Example 248, 6-(4-Fluorophenyl)-4-isopropoxy-quinazoline] | – | – | > 20 | 1 to 10
29 | CN(C)CCNC(=O)c1ccc(-c2ccc3nc(NCc4ccc(F)cc4)nc(O[C@H]4CCOC4)c3c2)cc1 [Example 249, (S)-4-(2-(4-fluorobenzylamino)-4-(tetrahydrofuran-3-yloxy)quinazolin-6-yl)-N-(2-(dimethylamino)ethyl)benzamide] | – | – | < 10 | < 0.3
30 | CCOc1nc(NCc2ccc(S(N)(=O)=O)cc2)nc2ccc(-c3ccc(F)cc3)cc12 [Example 250, 4-{[4-Ethoxy-6-(4-fluoro-phenyl)-quinazolin-2-ylamino]-methyl}-benzenesulfonamide] | – | – | < 10 | 1 to 10
31 | CCOc1nc(NCc2ccc(S(N)(=O)=O)cc2)nc2ccc(-c3ccc(F)c(NS(=O)(=O)C4CC4)c3)cc12 [Example 251, 4-{[6-(3-Cyclopropanesulfonylamino-4-fluoro-phenyl)-4-ethoxy-quinazolin-2-ylamino]-methyl}-benzenesulfonamide] | – | – | < 10 | < 0.3
32 | CCOc1nc(NCc2ccc(S(N)(=O)=O)cc2)nc2ccc(-c3cccc(S(N)(=O)=O)c3)cc12 [Example 252, 4-{[6-(3-aminosulfonyl-phenyl)-4-ethoxy-quinazolin-2-ylamino]-methyl}-benzenesulfonamide] | – | – | < 10 | < 0.3
33 | CCOc1nc(NCc2ccc(S(N)(=O)=O)cc2)nc2ccc(-c3ccc(NC(=O)N4CCCC4)cc3)cc12 [Example 253, pyrrolidine-1-carboxylic acid {4-[4-ethoxy-2-(4-sulfamoyl-benzylamino)-quinazolin-6-yl]-phenyl}-amide] | – | – | 10 to 20 | < 0.3
34 | CCOc1nc(NCc2ccc(S(N)(=O)=O)cc2)nc2ccc(-c3ccc(NC(N)=O)cc3)cc12 [Example 254, 4-{[4-ethoxy-6-(4-ureido-phenyl)-quinazolin-2-ylamino]-methyl}-benzenesulfonamide] | – | – | < 10 | < 0.3
35 | CCOc1nc(NCc2ccc(S(N)(=O)=O)cc2)nc2ccc(-c3ccc(C(N)=O)cc3)cc12 [Example 255, 4-[4-Ethoxy-2-(4-sulfamoyl-benzylamino)-quinazolin-6-yl]-benzamide] | – | – | < 10 | < 0.3
36 | CCCc1ncnc2ccc(-c3ccc(F)cc3)cc12 [Example 259, 6-(4-Fluoro-phenyl)-4-propyl-quinazoline] | – | – | > 20 | 1 to 10
